The values that follow come from patent publication US5589457A, “Process for the synchronization of ovulation” (Ausa International, Inc., priority 1995, dated 1996).

For one assay, the system named is cow. The conditions noted are these: cited from earlier work.
The next assay relates to cows. The experiment in a line: Artificial insemination concomitant with second GnRH dose (preliminary work). Format: in vivo, bovine. The conditions noted are these: insemination near or at the same time as second GnRH injection. Here is the method: While the normal practice will be to inseminate the cows about 16-20 hours after the second GnRH injection, insemination can occur any time ranging from the time of the GnRH injection or a day before or up to about a day later. Ovulation need not occur before insemination since the sperm can survive in the reproductive track for up to one or even two days after insemination. Thus insemination can safely take place one day before the GnRH injection. Preliminary work has shown that in some cases there may be some advantages to carrying out the artificial insemination concomitantly with the administration of the second dose of GnRH or within eight hours either before or after the second dose of GnRH.

A further assay concerns lactating dairy cows. Kind of assay: Ovulation response to GnRH injection in lactating dairy cows. Format: in vivo, bovine. An excerpt: The sequential hormone treatments function in the following manner. The first injection of GnRH (or the LH or hCG if used) will cause ovulation of any large functional follicles that are present on the ovaries. Experimental work has shown that a follicle will ovulate in over 80% of lactating dairy cows that are given this GnRH injection. This ensures that a Corpus Luteum is present on the ovary to inhibit animals from coming into heat during the following week. This injection causes growth of a new wave of follicles due to secretion of follicle stimulating hormone (FSH) from the pituitary gland. Thus, the first injection of GnRH assures the presence of a corpus luteum and synchronizes the growth of a new follicular wave. The follicle that will eventually ovulate will come from this new wave of follicles.
As with other protocols, such as disclosed in the aforementioned patent to Donaldson, the injection of PGF2a is designed to regress any corpora lutea that are present on the ovary. This allows the new dominant follicle to proceed toward ovulation. Usually about 11/2 to 2 days later, just before two animals would begin to show signs of heat, the cows are given a second injection of GnRH. At this time the new dominant follicle should be at a large ovulatory size and this injection will cause the large follicle to ovulate. However, as indicated previously, the second dose of GnRH can be given at the same time as the PGF2a injection and this can be done where it is desirable to enhance management efficiency; that is by combining the PGF2a and GnRH injection, one step in the treatment protocol is eliminated. The cows will ovulate at 1-2 days, usually 24-32 hours after this second injection of GnRH. Thus, instead of having animals show heat over a 7 day period of time, ovulation can be synchronized to an 8 hour period of time. This concise synchronization allows for effective timed insemination.

Where [1] appears, read: second GnRH injection after PGF2a.

No end group written: not given here.

Take `CCCCC[C@H](O)/C=C/[C@@H]1[C@@H](C/C=C\CCCC(=O)O)[C@@H](O)C[C@H]1O` [PGF2a, prostaglandin F2α]: the “time to heat after PGF2a, large dominant follicle present” value in the assay with cow (PGF2a given when a large dominant follicle is present) is 2 to 3 days. In the assay on cow (PGF2a given when a new follicular wave is just beginning), the “time for follicle to grow large enough to induce heat after PGF2a, new follicular wave just beginning” value is 6 to 7 days.

Consider “gonadotropin releasing hormone (QHWSYGLRPG; ends and bridges not checked; UniProt P01148 24-33, looked up) [GnRH]”, for which, in the assay with cows, the “birth rate of female calves” value was “enhancement in the birth rate of female calves” and the spontaneous abortion rate entry was “somewhat lower spontaneous abortion rate”. Also, the “period of time to which ovulation is synchronized” value in the assay with lactating dairy cows (after second GnRH injection) came out at 8 h. Also, the “lactating dairy cows in which a follicle will ovulate after the first GnRH injection” value with lactating dairy cows (first injection of GnRH, any stage of estrous cycle) was “over 80%”. Moreover, in the assay on lactating dairy cows (setting [1]), the “time of ovulation after second injection of GnRH” value was in the range of 1 to 2 days and the “usual time of ovulation after second injection of GnRH” value was in the range of 24 to 32 h.
